Tests used:
[1] = test system: NMD (Firefly luciferase mRNA tethered with MS2-UPF fusion protein); experiment: NMD inhibition using Firefly luciferase in HeLa cells; format: cell-based; details: 10 μmol/l of G07, versus control wells
Description: The presence of one of the following UPF proteins (UPF1, UPF2, UPF3 (also called UPF3a) or UPF3X (also called UPF3b)) on the 3′UTR part of an mRNA, activates NMD on this particular mRNA. When an UPF protein is located downstream from a normal stop codon, said normal stop codon is recognized as a PTC. Consequently, the mRNA comprising the UPF protein will be degraded through NMD.
HeLa cell-line expressing Firefly luciferase mRNA were used. Firefly luciferase mRNA harbors MS2 binding sites in the 3′UTR. The above-mentioned cells further contain a fusion protein which consists in said MS2 protein and one of the four UPF proteins. This fusion protein enables UPF positioning downstream from the normal stop codon (i.e. on the 3′UTR part of this mRNA). Accordingly, the normal stop codon is recognized as a PTC. Consequently, NMD is activated and degrades Firefly luciferase mRNA.
Luciferase activity in the above-mentioned cells is thus directly linked to NMD activity.
HeLa cells were cultured in DMEM (Gibco) supplemented with 10% FBS and containing 10 μmol/l of G07.

[2] = test system: P53 mRNA (UGA PTC at codon 196) in Calu-6 cells; experiment: P53 mRNA level in Calu-6 cells by RT-PCR; format: cell-based
Description: RNAs of said Calu-6 cells were reverse transcribed and amplified through PCR (RT-PCR) in the presence of a radioactive labeling nucleotide in order to measure P53 mRNA and GAPDH mRNA levels (GAPDH being used as a loading control). […] Amplified reverse transcribed mRNAs were loaded on an acrylamide gel and submitted to electrophoresis. Acrylamide gel was then dried on Whatman paper and applied on a phosphoscreen (Kodak). A Personal Molecular Imager (Bic-Rad) was used to quantify amplified radiolabelled species. Calu-6 cells were incubated with growing concentrations of G07 in DMSO during about twenty hours. This was carried out in order to confirm NMD inhibition activity of G07. After incubation, RNAs were purified by using TriReagent (MRC) and then reverse-transcribed into cDNA which can be PCR amplified in presence of a radiolabelled nucleotide.
Thus, an increasing quantity of P53 mRNA results from stabilization thereof. […] GAPDH (Glyceraldehyde 3-phosphate deshydrogenase) mRNA was amplified in order to normalize the measurement of P53 mRNA between two lanes.

[3] = test system: P53 protein in Calu-6 cells; experiment: P53 and P21 protein in Calu-6 cells by Western blot; format: cell-based
Procedure: Moreover, G07 enables the synthesis of a truncated P53 protein and a full-length P53 protein in Calu-6 cells. G07 is thus different from the molecules disclosed in WO 2008/101935. Regarding the molecules disclosed in the above-mentioned document, only the truncated protein has been detected. Protein extracts of Calu-6 cells incubated or not with G07 were loaded on an electrophoresis gel and then transferred on a nitrocellulose membrane in order to detect P53 protein after incubation with an anti-P53 antibody (an anti-P53 antibody is an antibody directed against the amino terminal part of P53 (Santa Cruz)).
When P53 protein is synthesized, P53 activates P21 expression. […] Thus, P53 protein synthesized thanks to G07 induces P21 expression as WT P53 protein does. Consequently, the Applicants have thus confirmed that G07 enables the synthesis of a functional full-length P53 protein.

[4] = test system: MOR mRNA (MOR gene with NMD-activating nonsense-mutation); experiment: In vivo NMD inhibition in KIM mice (MOR mRNA in brain); parameters: species or system mouse; details: 1Q and 2Q (0.2 and 2 mg/kg) injected in DMSO, 24 hours after injection
Procedure: In KIM mice, MOR gene harbors a NMD-activating nonsense-mutation. MOR gene is expressed in nervous central system. Solutions containing 0.2, 2 or 20 mg/kg of G07 (1Q, 2Q or 3Q respectively) dissolved in DMSO were injected into KIM mice. A control group consists of animals treated with pure DMSO. Animals were then euthanized 6, 24 or 32 hours after injection. RNAs extracted from brain homogenates were purified using TriReagent (MRC) and then analyzed as described with reference to FIG. 2. The difference between the experiments described with reference to FIG. 2 is that in the present case the mRNAs analyzed are the mRNA coding for MOR gene and the mRNA coding for the GAPDH gene used as a control to quantify measured MOR mRNA. The first 3 wells from the left correspond to a half dilution of a sample coming from a wild-type mouse brain. These 3 wells were used to check the PCR conditions which have to be quantitatively useful. […] The same technique as described with reference to FIG. 2 was used except the fact that RNA comes from KIM mice brains. Some of these KIM mice were injected with G07.

[5] = test system: CFTR mRNA (PTC at position 1282) in IB3 cells; experiment: NMD inhibition in IB3 cells (CFTR mRNA by RT-PCR); format: cell-based; details: increasing concentrations, 20 hours
Procedure: IB3 cells harbor a […] in position 1282 in place of the tryptophan codon of the CFTR gene.
IB3 cells (ATCC) were incubated in DMSO solutions containing pure DMSO (as a control) or increasing G07 concentrations, respectively, during 20 hours.
RNAs obtained after incubation were purified and a RT-PCR was performed to measure the amount of CFTR mRNA (containing a PTC) and the amount of GADPH mRNA (used as a control).

CFTR in 6-CFSMEo- cells = experiment: Iodide efflux in 6-CFSMEo- cells (SPQ fluorescence); format: cell-based; details: 6-CFSMEo- cells, 0.2, 1, 5 and 25 μM; forskolin 20 μM and IBMX 200 μM
Procedure: 6-CFSMEo− cells harbor a PTC in place of the glutamine 2 codon of the CFTR gene.
6-CFSMEo^− cells were seeded in 96-well plates and loaded overnight with 10 mM of the halide-sensitive fluorophore dye 6-methoxy-N-(3-sulfopropyl)-quinolinium (SPQ, Invitrogen). Cells were washed twice with iodide buffer (135 mM NaI, 2.4 mM K2HPO4, 0.6 mM KH2PO4, 1 mM MgSO4, 1 mM CaSO4, 10 mM dextrose and 10 mM Hepes, pH 7.3) and then incubated in iodide buffer for 30 min. After basal fluorescence was measured for 2 min, the iodide buffer was replaced with nitrate buffer (with 135 mM NaNO3 instead of NaI) containing 20 μM of forskolin and 200 μM of IBMX, and fluorescence was further measured for 10 minutes. The fluorescence intensities were measured every 15 seconds using the Tristar LB 941 microplate reader (Berthold) equipped with a 340 nm excitation filter and a 450 nm emission filter. […] G07 concentrations used were 0.2 μM, 1 μM, 5 μM and 25 μM, respectively. The increase in iodide efflux is shown as mean±SEM from at least four independent assays. It refers to the fluorescence at the reading time; F0 refers to the average fluorescence before addition of the above-mentioned nitrate buffer containing 20 μM of forskolin and 200 μM of IBMX.

[6] = test system: PTC-containing dystrophin gene in DMD cells; experiment: Dystrophin mRNA in DMD cells by RT-PCR; format: cell-based
Procedure: As regards the results of FIG. 11 a, DMD cells were incubated with increasing amounts of […] molecule or as a control with DMSO. RNAs were purified using RNazol reagent (MRC) and reverse transcribed using Superscript. II (Life technologies) and random hexamer. PCR using radiolabelled CTP was performed in order to amplify either dystrophin or GAPDH cDNA. Amplification products were loaded on 5% polyacrylamide gel. The gel was then dried and exposed on phosphoscreen in order to allow quantification of each amplification species by Personal Molecular Imager (Biorad).

[7] = test system: PTC-containing dystrophin gene in DMD cells; experiment: Dystrophin protein in DMD cells by Western blot; format: cell-based
Procedure: As regards the results of FIG. 11 b, DMD cells were incubated with increasing amounts of […] molecule or as a control with DMSO. Protein extracts from these cells were loaded on 10% SDS-PAGE and transferred on nitrocellulose membrane. Nitrocellulose membrane was then exposed to primary antibody (either anti-dystrophin antibody raised against the amino-part of dystrophin protein (Santa-Cruz), or anti-tubulin antibody in order to specify the loading protein amount of each lane.

[8] = after oral administration; cited from earlier work
NMD = details: cited from earlier work

SMILES | luciferase activity (NMD inhibition) [1] | NMD inhibition / P53 mRNA stabilization ([2]; 25 μM) | quantity of P53 mRNA (normalised to GAPDH mRNA) ([2]; growing concentrations in DMSO, about twenty hours) | P21 protein (functionality of P53) ([3]; 25 and 125 μM) | P53 protein synthesis (Western blot) ([3]; about 20 hours incubation) | MOR mRNA level in brain [4] | ratio amount of CFTR mRNA/amount of GAPDH mRNA [5] | iodide efflux (CFTR in 6-CFSMEo- cells) | concentration of maximum efficacy, dystrophin mRNA [6] | dystrophin mRNA (RT-PCR) ([6]; increasing amounts) | concentration of maximum efficacy, dystrophin protein [7] | dystrophin protein (Western-blot) ([7]; increasing amounts) | tissue distribution [8] | NMD inhibiting activity (NMD)
CC(C)c1ccc2oc3nc(N)c(C(=O)O)cc3c(=O)c2c1 [G07, 2-amino-7-isopropyl-5-oxo-5H-chromeno[2,3-b]pyridine-3-carboxylic acid] | higher than in control wells | inhibits NMD and enables a stabilization of P53 mRNA | increased quantity of P53 mRNA | presence of P21 | full-length and truncated P53 proteins are synthesized | stabilization of MOR mRNA | increased stabilization of CTFR mRNA | dose-response effect | 5 µM | stabilization of dystrophin mRNA | 5 µM | synthesis of dystrophin protein | preferably distributed in liver, kidneys and intestine | 
O=C(O)c1cccc(-c2noc(-c3ccccc3F)n2)c1 [PTC124, 3-[5-(2-fluorophenyl)-1,2,4-oxadiazol-3-yl]benzoïc acid] |  |  |  |  |  |  |  |  |  |  |  |  |  | no NMD inhibiting activity

— US10265302B2, “Compound useful for the treatment of nonsense-mutation-mediated diseases and pharmaceutical composition comprising said compound” (UNIVERSITE DE LILLE, priority 2010, dated 2019)
